Assay results reported in ChEMBL document CHEMBL5291721, “A preclinical secondary pharmacology resource illuminates target-adverse drug reaction associations of marketed drugs” (Nat Commun, 2023).

Key:
[1] = target: T1, Muscarinic acetylcholine receptor M2 (Homo sapiens, UniProt P08172); format: functional, cell-based
T1 sequence (P08172 whole entry): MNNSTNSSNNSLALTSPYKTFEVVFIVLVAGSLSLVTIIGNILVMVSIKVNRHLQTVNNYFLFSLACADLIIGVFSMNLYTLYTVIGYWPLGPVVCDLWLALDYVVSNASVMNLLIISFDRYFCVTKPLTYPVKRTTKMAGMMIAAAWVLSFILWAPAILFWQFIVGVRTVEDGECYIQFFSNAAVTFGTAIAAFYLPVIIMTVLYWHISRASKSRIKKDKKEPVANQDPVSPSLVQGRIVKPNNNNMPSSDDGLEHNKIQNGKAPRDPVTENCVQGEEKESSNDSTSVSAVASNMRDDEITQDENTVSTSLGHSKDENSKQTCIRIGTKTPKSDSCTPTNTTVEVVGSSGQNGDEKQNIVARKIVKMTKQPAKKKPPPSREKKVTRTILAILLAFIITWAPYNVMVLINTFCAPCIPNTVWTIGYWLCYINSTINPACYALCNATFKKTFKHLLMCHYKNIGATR

Cannabinoid receptor 1 = Cannabinoid receptor 1 (Homo sapiens, UniProt P21554); format: functional, cell-based
Endothelin-1 receptor = target: T2, Endothelin-1 receptor (Homo sapiens, UniProt P25101)
T2 sequence (P25101 whole entry): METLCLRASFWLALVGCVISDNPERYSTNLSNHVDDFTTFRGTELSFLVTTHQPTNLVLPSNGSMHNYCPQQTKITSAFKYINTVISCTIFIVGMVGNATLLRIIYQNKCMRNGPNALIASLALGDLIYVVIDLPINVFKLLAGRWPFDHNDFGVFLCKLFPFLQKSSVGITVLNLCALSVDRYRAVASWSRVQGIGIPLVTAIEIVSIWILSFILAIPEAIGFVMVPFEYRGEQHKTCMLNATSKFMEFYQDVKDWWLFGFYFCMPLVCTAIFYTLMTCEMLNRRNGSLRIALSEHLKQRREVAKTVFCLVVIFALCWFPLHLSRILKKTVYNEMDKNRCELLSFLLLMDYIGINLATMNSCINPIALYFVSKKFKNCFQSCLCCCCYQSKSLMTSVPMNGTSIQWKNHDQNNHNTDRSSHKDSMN

[2] = target: Gamma-aminobutyric acid receptor subunit alpha-1 (Rattus norvegicus, UniProt P62813); format: functional
[3] = target: 5-hydroxytryptamine receptor 2A (Homo sapiens, UniProt P28223); format: functional, cell-based
[4] = target: 5-hydroxytryptamine receptor 2B (Homo sapiens, UniProt P41595); format: functional, cell-based
[5] = target: Delta-type opioid receptor (Homo sapiens, UniProt P41143)
Progesterone receptor = target: T3, Progesterone receptor (Homo sapiens, UniProt P06401); format: functional
T3 sequence (P06401 whole entry): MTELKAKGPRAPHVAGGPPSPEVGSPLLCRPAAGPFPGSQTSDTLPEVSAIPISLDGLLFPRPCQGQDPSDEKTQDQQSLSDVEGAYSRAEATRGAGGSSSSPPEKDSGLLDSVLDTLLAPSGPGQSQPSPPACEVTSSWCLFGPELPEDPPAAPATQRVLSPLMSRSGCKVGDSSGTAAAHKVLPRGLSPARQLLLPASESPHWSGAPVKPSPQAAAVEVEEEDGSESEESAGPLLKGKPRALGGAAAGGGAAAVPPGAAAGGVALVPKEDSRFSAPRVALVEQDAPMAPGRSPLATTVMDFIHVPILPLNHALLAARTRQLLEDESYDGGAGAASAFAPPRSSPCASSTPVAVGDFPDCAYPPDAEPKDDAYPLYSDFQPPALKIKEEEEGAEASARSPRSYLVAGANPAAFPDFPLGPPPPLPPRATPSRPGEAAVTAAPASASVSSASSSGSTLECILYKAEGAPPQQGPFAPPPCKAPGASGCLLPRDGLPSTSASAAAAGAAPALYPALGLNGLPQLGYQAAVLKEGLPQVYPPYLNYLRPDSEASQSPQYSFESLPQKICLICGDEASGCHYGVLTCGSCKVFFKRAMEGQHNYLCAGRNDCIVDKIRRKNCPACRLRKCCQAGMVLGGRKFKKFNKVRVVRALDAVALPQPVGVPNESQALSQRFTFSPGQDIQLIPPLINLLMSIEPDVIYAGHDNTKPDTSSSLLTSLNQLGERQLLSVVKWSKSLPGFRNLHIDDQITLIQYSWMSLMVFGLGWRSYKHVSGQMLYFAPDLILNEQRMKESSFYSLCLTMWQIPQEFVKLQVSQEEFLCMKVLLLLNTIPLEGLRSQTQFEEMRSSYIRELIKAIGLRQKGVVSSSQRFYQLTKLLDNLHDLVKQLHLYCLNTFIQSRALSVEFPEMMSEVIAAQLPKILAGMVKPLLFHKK

[6] = target: T4, Prostaglandin G/H synthase 1 (Rattus norvegicus, UniProt Q63921); format: functional
T4 sequence (Q63921 whole entry): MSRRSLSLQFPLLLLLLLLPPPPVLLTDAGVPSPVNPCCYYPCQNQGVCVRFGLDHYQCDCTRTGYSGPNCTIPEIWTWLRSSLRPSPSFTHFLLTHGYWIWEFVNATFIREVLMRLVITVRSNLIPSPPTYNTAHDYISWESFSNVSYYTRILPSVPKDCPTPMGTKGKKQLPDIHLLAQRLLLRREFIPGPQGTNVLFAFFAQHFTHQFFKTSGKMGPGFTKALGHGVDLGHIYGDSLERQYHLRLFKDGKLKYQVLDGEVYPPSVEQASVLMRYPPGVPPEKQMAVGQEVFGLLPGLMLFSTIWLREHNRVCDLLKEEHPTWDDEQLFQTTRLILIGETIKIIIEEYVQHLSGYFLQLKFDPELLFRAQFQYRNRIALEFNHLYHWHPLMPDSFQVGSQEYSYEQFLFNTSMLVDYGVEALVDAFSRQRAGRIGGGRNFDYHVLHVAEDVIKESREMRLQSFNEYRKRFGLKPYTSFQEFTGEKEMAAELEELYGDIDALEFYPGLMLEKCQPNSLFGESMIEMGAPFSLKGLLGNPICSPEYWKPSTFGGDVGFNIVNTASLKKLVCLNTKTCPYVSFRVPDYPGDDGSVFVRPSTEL

[7] = target: Sodium-dependent dopamine transporter (Homo sapiens, UniProt Q01959)
[8] = target: Sodium-dependent serotonin transporter (Homo sapiens, UniProt P31645)
[9] = target: cGMP-inhibited 3',5'-cyclic phosphodiesterase 3A (Homo sapiens, UniProt Q14432); format: functional
Further: assay procedure not described here.

Chain of 5-hydroxytryptamine receptor 2B (P41595 whole entry): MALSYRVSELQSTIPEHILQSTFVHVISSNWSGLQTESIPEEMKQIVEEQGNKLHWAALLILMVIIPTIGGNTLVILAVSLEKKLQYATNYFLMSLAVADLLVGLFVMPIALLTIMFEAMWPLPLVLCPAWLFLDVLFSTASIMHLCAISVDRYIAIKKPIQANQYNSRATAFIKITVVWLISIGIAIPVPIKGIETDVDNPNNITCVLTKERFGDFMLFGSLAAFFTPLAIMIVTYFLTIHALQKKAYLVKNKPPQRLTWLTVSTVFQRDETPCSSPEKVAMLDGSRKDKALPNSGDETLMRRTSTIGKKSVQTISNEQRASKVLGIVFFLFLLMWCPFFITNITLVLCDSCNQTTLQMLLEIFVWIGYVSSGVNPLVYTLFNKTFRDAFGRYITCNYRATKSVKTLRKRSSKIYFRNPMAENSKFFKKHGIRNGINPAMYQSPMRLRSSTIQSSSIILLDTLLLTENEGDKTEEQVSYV
Chain of cGMP-inhibited 3',5'-cyclic phosphodiesterase 3A (Q14432 whole entry): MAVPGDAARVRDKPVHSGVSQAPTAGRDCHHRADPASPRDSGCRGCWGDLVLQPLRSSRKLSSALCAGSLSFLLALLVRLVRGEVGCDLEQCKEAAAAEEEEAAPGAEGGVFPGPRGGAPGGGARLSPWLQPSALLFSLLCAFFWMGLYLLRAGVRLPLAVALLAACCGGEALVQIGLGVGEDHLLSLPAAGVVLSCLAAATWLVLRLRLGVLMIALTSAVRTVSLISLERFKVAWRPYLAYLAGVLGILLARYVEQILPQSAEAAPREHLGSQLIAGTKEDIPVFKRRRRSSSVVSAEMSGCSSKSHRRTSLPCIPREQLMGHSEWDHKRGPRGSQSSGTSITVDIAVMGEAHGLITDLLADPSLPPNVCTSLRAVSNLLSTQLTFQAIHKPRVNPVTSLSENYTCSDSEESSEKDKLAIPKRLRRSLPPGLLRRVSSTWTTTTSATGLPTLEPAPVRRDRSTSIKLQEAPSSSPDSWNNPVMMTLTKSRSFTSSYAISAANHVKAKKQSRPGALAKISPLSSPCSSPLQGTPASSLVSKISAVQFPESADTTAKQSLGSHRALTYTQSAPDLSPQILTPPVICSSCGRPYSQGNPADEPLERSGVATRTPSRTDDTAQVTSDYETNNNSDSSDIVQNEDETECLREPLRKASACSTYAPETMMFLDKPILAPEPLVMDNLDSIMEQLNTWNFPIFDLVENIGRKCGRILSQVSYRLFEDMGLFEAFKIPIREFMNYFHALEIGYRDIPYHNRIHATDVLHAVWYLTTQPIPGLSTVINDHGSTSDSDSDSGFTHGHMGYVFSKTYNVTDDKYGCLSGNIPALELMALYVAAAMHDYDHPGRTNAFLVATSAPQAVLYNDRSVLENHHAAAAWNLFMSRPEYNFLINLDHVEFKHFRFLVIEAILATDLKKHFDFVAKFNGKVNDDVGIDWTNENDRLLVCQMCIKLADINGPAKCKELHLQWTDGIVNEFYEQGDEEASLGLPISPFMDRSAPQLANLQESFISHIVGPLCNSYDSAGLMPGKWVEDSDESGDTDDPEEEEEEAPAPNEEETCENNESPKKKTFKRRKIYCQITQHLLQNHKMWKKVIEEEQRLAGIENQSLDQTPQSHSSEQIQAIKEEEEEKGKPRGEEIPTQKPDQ
Chain of Cannabinoid receptor 1 (P21554 whole entry): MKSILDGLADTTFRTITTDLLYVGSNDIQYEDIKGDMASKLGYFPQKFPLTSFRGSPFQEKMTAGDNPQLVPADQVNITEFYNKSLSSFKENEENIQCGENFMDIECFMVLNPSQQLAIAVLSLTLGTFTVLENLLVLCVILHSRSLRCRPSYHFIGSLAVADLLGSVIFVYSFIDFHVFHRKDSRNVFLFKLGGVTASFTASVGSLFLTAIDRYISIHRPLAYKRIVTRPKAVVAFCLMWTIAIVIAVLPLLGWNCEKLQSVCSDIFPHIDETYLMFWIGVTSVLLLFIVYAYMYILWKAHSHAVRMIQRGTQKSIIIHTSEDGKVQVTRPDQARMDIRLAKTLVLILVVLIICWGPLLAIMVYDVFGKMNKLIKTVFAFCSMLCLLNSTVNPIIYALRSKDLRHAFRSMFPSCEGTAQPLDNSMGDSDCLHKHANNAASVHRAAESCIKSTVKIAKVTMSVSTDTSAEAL
Chain of 5-hydroxytryptamine receptor 2A (P28223 whole entry): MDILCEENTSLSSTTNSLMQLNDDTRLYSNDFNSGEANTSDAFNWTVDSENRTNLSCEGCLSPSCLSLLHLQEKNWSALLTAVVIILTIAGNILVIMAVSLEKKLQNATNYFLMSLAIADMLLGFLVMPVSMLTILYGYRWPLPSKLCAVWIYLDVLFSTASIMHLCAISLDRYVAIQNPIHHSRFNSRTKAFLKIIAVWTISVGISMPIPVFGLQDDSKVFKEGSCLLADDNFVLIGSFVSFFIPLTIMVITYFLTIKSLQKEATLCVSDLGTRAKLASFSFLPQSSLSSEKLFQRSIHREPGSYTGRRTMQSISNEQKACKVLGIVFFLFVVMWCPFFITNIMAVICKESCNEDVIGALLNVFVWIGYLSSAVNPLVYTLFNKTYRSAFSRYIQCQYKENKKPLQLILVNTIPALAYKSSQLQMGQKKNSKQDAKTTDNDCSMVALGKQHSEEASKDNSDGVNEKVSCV
Chain of Gamma-aminobutyric acid receptor subunit alpha-1 (P62813 whole entry): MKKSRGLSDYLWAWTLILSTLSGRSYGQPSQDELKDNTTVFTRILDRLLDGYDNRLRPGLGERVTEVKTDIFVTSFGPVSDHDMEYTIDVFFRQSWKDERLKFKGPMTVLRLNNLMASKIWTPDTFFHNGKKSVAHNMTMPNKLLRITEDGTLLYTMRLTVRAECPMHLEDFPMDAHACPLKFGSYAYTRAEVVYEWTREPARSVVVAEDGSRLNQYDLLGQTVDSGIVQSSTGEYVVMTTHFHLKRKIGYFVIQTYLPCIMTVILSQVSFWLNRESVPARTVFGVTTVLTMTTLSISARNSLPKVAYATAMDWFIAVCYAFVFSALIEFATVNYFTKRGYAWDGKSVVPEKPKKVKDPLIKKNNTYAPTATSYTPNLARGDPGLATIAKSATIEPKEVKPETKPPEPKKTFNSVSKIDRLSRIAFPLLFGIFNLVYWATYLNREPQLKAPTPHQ
Chain of Sodium-dependent dopamine transporter (Q01959 whole entry): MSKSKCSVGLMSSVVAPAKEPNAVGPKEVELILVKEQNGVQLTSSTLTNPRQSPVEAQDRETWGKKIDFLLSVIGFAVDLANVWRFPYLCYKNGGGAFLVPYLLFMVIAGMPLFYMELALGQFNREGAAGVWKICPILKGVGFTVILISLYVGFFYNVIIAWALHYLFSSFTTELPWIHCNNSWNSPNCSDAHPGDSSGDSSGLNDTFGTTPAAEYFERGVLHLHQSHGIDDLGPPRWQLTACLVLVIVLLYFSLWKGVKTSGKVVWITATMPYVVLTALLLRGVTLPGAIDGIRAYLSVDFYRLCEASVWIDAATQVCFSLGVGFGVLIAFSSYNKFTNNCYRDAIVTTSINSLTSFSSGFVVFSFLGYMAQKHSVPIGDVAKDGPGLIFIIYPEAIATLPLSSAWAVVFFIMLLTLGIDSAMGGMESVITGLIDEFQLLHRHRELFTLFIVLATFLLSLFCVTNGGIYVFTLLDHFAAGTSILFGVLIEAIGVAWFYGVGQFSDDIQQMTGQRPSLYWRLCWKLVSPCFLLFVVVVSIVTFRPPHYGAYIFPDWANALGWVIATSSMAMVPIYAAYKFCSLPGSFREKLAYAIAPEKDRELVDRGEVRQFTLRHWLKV
Chain of Sodium-dependent serotonin transporter (P31645 whole entry): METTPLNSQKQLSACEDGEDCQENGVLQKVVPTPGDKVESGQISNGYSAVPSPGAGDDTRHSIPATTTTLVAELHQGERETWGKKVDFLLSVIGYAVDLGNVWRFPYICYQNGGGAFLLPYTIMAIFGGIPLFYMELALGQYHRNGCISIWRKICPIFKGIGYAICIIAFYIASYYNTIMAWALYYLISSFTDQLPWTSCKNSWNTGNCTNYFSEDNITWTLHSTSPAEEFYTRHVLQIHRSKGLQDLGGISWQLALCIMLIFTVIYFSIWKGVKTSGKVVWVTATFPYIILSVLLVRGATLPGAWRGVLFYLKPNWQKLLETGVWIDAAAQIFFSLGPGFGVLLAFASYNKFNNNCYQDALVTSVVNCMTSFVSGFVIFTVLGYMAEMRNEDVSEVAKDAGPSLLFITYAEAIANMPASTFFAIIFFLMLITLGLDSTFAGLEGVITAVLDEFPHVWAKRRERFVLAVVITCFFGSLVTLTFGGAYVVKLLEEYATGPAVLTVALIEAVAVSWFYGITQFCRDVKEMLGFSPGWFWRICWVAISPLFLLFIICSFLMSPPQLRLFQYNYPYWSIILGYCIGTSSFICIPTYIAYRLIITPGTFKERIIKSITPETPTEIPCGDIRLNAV
Chain of Delta-type opioid receptor (P41143 whole entry): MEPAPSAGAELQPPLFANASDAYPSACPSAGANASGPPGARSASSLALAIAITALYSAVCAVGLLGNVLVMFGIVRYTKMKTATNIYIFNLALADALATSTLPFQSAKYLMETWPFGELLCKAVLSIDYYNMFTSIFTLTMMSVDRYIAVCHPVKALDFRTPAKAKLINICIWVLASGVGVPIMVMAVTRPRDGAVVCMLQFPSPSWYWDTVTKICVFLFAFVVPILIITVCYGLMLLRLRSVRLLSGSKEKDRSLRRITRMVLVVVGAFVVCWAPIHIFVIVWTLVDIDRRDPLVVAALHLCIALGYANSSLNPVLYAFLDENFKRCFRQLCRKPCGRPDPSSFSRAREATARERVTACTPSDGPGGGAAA

| Structure (SMILES) | AC50 [1] [µM] | AC50 (Cannabinoid receptor 1) [µM] | AC50 (Endothelin-1 receptor) [µM] | AC50 [2] [µM] | AC50 [3] [µM] | AC50 [4] [µM] | AC50 [5] [µM] | AC50 (Progesterone receptor) [µM] | AC50 [6] [µM] | AC50 [7] [µM] | AC50 [8] [µM] | AC50 [9] [µM] |
| --- | --- | --- | --- | --- | --- | --- | --- | --- | --- | --- | --- | --- |
| COc1ccc(-c2ccc3cc(C(=O)O)ccc3c2)cc1C12CC3CC(CC(C3)C1)C2 | > 30 | > 30 | > 30 | > 30 | > 30 | > 30 | > 30 | > 30 | > 30 | > 30 | > 30 | > 30 |
| COc1ccccc1N1CCN(CCCNc2cc(=O)n(C)c(=O)n2C)CC1 | > 30 | > 30 | > 30 | > 30 | > 30 | > 30 | > 30 | > 30 | > 30 | > 30 | 9.5 | 9.5 |
| CCOC(=O)[C@H](CCc1ccccc1)N[C@@H](C)C(=O)N1C(=O)N(C)C[C@H]1C(=O)O | > 30 | > 30 | > 30 | > 30 | > 30 | > 30 | > 30 | > 30 | 12 | > 30 | > 30 | > 30 |
| CC(C)(C)C(=O)Oc1ccc(S(=O)(=O)Nc2ccccc2C(=O)NCC(=O)O)cc1 | > 30 | > 30 | > 30 | > 30 | > 30 | > 30 | > 30 | > 30 | > 30 | > 30 | > 10 | > 30 |
| CC(=O)O[C@H]1CC[C@@]2(C)C(=CC[C@@H]3[C@@H]2CC[C@]2(C)C(c4cccnc4)=CC[C@@H]32)C1 [ABIRATERONE ACETATE] | > 30 | > 30 | > 30 | > 30 | > 30 | – | > 30 | > 30 | > 30 | > 30 | > 30 | > 30 |
| O=C(O)CCCCCCNC1c2ccccc2CCc2ccccc21 [AMINEPTINE] | > 30 | > 30 | > 30 | > 30 | > 30 | > 30 | > 30 | > 30 | > 30 | 1.5 | > 30 | > 30 |
| NCC(=O)CCC(=O)O [AMINOLEVULINIC ACID] | > 30 | > 30 | > 30 | > 30 | > 30 | > 30 | > 30 | > 30 | > 30 | > 30 | > 30 | > 30 |
| COc1ccccc1OCCNCC(O)c1ccc(C)c(S(N)(=O)=O)c1 (stereo not drawn) [AMOSULALOL] | > 30 | > 30 | > 30 | > 30 | > 30 | > 30 | > 30 | > 30 | > 30 | > 30 | 29 | > 10 |
| CO/N=C(\C(=O)N[C@@H]1C(=O)N2C(C(=O)O)=C(CSc3nnnn3C)CS[C@H]12)c1csc(N)n1 [CEFMENOXIME] | > 30 | > 30 | > 30 | – | > 30 | > 30 | – | > 30 | > 30 | > 30 | > 30 | > 30 |
| CC(=O)OCC(=O)[C@@]12N=C(C)O[C@@H]1C[C@H]1[C@@H]3CCC4=CC(=O)C=C[C@]4(C)[C@H]3[C@@H](O)C[C@@]12C [DEFLAZACORT] | > 30 | > 30 | > 30 | > 30 | > 30 | > 30 | > 30 | 3.7 | > 30 | > 30 | > 30 | > 30 |
| CCCCCCOc1ccccc1C(N)=O [EXALAMIDE] | – | > 30 | > 30 | > 30 | > 30 | > 30 | > 30 | > 30 | > 30 | 14 | > 30 | > 30 |
| COc1ccc(CCN(C)CCCC(C#N)(c2cc(OC)c(OC)c(OC)c2)C(C)C)cc1OC (stereo not drawn) [GALLOPAMIL] | > 30 | > 30 | > 30 | > 30 | > 30 | > 30 | > 30 | > 30 | > 30 | > 30 | 3 | > 30 |
| CC(C)C(=O)c1c(C(C)C)nn2ccccc12 [IBUDILAST] | > 30 | > 30 | > 30 | 5.7 | > 30 | > 30 | > 30 | > 30 | > 30 | > 30 | > 30 | – |
| COc1ccc2c3c1O[C@H]1C(=O)CC[C@@]4(O)[C@@H](C2)N(C)CC[C@]314 [OXYCODONE] | > 30 | > 30 | > 30 | > 30 | > 30 | > 30 | – | > 30 | > 30 | > 30 | > 30 | > 30 |
| CN1C(=O)C(O)N=C(c2ccccc2)c2cc(Cl)ccc21 (stereo not drawn) [TEMAZEPAM] | > 10 | > 30 | > 30 | 0.044 | > 30 | > 10 | > 30 | – | > 30 | > 10 | > 10 | 3 |
